`Cc1ccc(-c2cc(-c3ccccn3)nc(-c3ccccn3)c2)cc1` returned a melting point of 169 °C. Take `CC(=O)C(C)(CCC(=O)O)CCC(=O)O`: the melting point amounted to 123 °C. `Nc1sccc1-c1nc2ccccc2s1` yielded a melting point of 138 to 140 °C. Then `CCC(OC(N)=O)C1CCCCC1` (configuration not stated), with 128 °C; and `NN=C(N)C(S)=NN`, with 150 °C; and `COc1cc(CC(=O)O)ccc1Br`, with 104 °C. Next, `C=Cc1ccc(Cl)cc1`: 15.9 °C.

As for `COC(=O)Cc1ccc(OCc2ccccc2)cc1`, the melting point is 53 to 58 °C. Next, `CCc1c2c(nc3ccc(OC(=O)N4CCC(N5CCCCC5)CC4)cc13)-c1cc3c(c(=O)n1C2)COC(=O)C3(O)CC` (configuration not stated): 222 °C; `Cc1ccc(C)c([N+](=O)[O-])c1`: -25 °C. Next, `Cc1nc2sc3c(c2c(=O)n1NC(=O)c1ccccc1Cl)CCCC3`: 244 to 246 °C; `COc1ccc(S(=O)(=O)Cl)cc1F`: 79 °C; `CCCCCOC(=O)COc1cc(N2C(=O)C3=C(CCCC3)C2=O)c(F)cc1Cl`: 89 °C. In turn, `Cc1ccc(F)c(O)c1Cl` gave a melting point of 49 °C. Turning to `COc1cccc(F)c1C#N`, the melting point was 103 °C. Then `Nc1cc2nc3c(cc2cc1C=O)CCCC3`, with 218 °C; and `Nc1ccc(S(=O)(=O)c2ccc(NCC(=O)O)cc2)cc1`, with 194 °C; and `COc1cc(-c2ccccc2)c(C)cc1N`, with 65 to 67 °C. Then `COc1ccc(/C=C2\CN(S(=O)(=O)c3ccc(C)cc3)c3ccccc3N2S(=O)(=O)c2ccc(C)cc2)cc1`, with 152 °C.

Take `COc1ccc(C(=O)C=Cc2ccccc2)c(O)c1`: the melting point fell in the range of 106 to 108 °C.

Consider `O=c1c(C2CC(c3ccc(-c4ccc(Br)cc4)cc3)Cc3ccccc32)c(O)sc2ccccc12` (configuration not stated), for which the melting point stood at 235 °C.

On to `O=C(NCCBr)c1cc([N+](=O)[O-])cc([N+](=O)[O-])c1`, for which the melting point is 140 °C. Molecule `CC(C)(C)c1ccc(C(=O)c2ccccc2)cc1` gave a melting point of 40 °C. Then `CC(C)(C)NC(N)=O`, with 178 to 182 °C; and `Cc1nc(-c2ccc(C(F)(F)F)cc2)sc1C(=O)O`, with 237 to 238 °C; and `CO[Si](OC)(OC)OC`, with 4.5 °C. Then `Cc1ccc(S(=O)(=O)OCc2c(F)c(F)c(F)c(F)c2F)cc1`, with 78 °C; and `Nc1ccc(C2=NNC(=O)CC2)cc1`, with 242 to 244 °C. With `OCc1cnc(S)n1Cc1ccccc1`, the melting point was in the range of 238 to 240 °C. Then `CCOC(=O)C1=C(C)NC(=O)NC1c1cccc(OC)c1O` (configuration not stated), with 209 °C.

Molecule `CCCCOC(=O)C(C)Oc1ccc(Oc2ccc(C(F)(F)F)cn2)cc1` (configuration not stated) registered a melting point of 13 °C. As for `C[Si](C)(C)O[Si](C)(C)O[Si](C)(C)C`, the melting point was -80 °C. Then `Cc1ccc(-c2ccc(C=C3C(=O)NC(=O)NC3=O)o2)cc1`, with 265 °C; and `FC(F)(F)OC(F)(I)C(F)(F)F` (configuration not stated), with 44 °C; and `N=CN`, with 81 °C. Regarding `CC12C=CCC1C1CCC3CC(O)CCC3(C)C1CC2` (configuration not stated), the melting point was determined as 143 °C. Next, `COC(=O)c1sc2c(c1N)CSc1ccc(Cl)cc1-2`: 120 °C; `NS(=O)(=O)c1cc2c(cc1Cl)NCNS2(=O)=O`: 267 °C. The molecule `c1ccc2c(c1)cnc1ccccc12` came in with a melting point of 107 °C. Then `N#Cc1cnc(N2CCCCC2)nc1N`, with 220 to 222 °C; and `NS(=O)(=O)c1cc(Cl)c(Cl)c(S(N)(=O)=O)c1`, with 229 °C. Next, `CC1(C)C2CC3C(c4ccccc4)(C2=C(c2ccccc2)c2ccccc2)C31C` (configuration not stated): 164 °C. Next, `Cc1cccc(C)c1NC(=O)c1cc(S(N)(=O)=O)c(Cl)cc1O`: 256 °C. Take `O=C1C(=C2Nc3ccccc3C2=O)Nc2ccccc21`: the melting point was determined as 300 °C.

With `CCN(CC)c1ccc(C(C)=O)cc1`, the melting point worked out at 48 °C. For `CCOC(O)C(OC(C)=O)C(OC(C)=O)C(OC(C)=O)C(COC(C)=O)OC(C)=O` (configuration not stated), the melting point was 132 °C. Then `Cc1ccc2cccc(C)c2c1`, with -13.9 °C; and `COc1ccccc1C1CNCCN1` (configuration not stated), with 80 °C; and `CC12CCC(=O)C=C1CCC1C2C(O)CC2(C)C(C(=O)CO)CCC12` (configuration not stated), with 181 °C. Then `CC(=O)NCC1(c2ccccc2)CCN(CCCC(=O)c2ccc(F)cc2)CC1`, with 98.5 °C. Next, `O[C@@H]1CC2=C(CC=CC2)C[C@@H]1O`: 139 to 140 °C; `CCOC(=O)C1C(C)=NN=C1N` (configuration not stated): 54 to 56 °C; `Sc1ncccn1`: 230 °C. With `O=c1ccc2cc(Cl)ccc2o1`, the melting point was determined as 165 °C. Turning to `O=C(Cl)c1nccs1`, the melting point was 54 to 58 °C. Next, `Cc1ccc(S(=O)(=O)OC2CCC3C4CCC5CC(=O)CCC5(C)C4CCC23C)cc1` (configuration not stated): 179 to 180 °C; `Clc1ccc(C2Nn3c(nnc3-c3ccccc3)S2)cc1` (configuration not stated): 196 to 198 °C. The molecule `Cc1nn(-c2ccccc2)c(C)c1CO` showed a melting point of 106 to 110 °C. Next, `c1ccc(CNc2ccccc2-n2c(-c3ccccc3)nc3ccccc32)cc1`: 160 °C; `CC(=O)OCC(=O)C1(O)C(OC(C)=O)CC2C3CCC4=CC(=O)C=CC4(C)C3(F)C(O)CC21C` (configuration not stated): 235 °C. Next, `Cc1nc([N+](=O)[O-])cn1-c1ccc([N+](=O)[O-])cc1`: 186 °C; `S=C=Nc1ccc(N2CCOCC2)nc1`: 121 to 122 °C; `CC(=O)Nc1ccc2c(c1)CCCC2=O`: 127 to 129 °C. In turn, `CC(C)(C)OC(=O)NC1(C(=O)O)CCc2ccccc2C1` (configuration not stated) returned a melting point of 185 to 187 °C. Then `CCOc1ccc(NC(=O)C(F)(F)C(F)(F)C(F)(F)C(F)(F)C(F)(F)C(F)(F)C(F)(F)C(F)(F)F)cc1`, with 135 °C; and `CC/C(=N\O)C1CC2(C)CCC1C2(C)C` (configuration not stated), with 92.5 °C; and `CCN(CC)C(=O)C(C)Oc1cccc2ccccc12` (configuration not stated), with 75 °C. Then `Brc1nc(Br)n(Cc2ccccc2)n1`, with 60 to 65 °C; and `CCOC(=O)c1ccc(O)c(OC)c1`, with 44 °C. Next, `CS(=O)(=O)c1ccc(O)cc1`: 93 °C; `CC(OC(=O)Nc1ccccc1)c1cccc(C(C)OC(=O)Nc2ccccc2)c1` (configuration not stated): 136 °C.

`Cc1cc([N+](=O)[O-])cc(C)c1O` displayed a melting point of 164 to 169 °C.

For `N#Cc1c(NC(=O)c2ccc(Cl)cc2Cl)sc2c1CCCC2`, the melting point lay in the range of 201 to 202 °C. `COc1ccc2cc(C(=O)c3ccccc3)c(=O)oc2c1` gave a melting point of 150 to 153 °C. Then `CCCCCCCC(=O)OCCCC`, with -42.9 °C; and `Cc1cc(C)c(Br)c(C)c1N`, with 36 °C; and `NCCCCCCCCCCCCN`, with 70 °C. `N#Cc1c(NC(=O)c2ccccc2Cl)sc2c1CCCC2` showed a melting point of 161 to 162 °C. Next, `C1=CC2C3C=CC(C3)C2C1` (configuration not stated): 33.6 °C; `CCCCCCCCCCCCOc1ccc(C=O)cc1OCCCCCCCCCCCC`: 70 to 73 °C; `O=S(=O)(c1ccc(Cl)cc1)n1cccc1`: 116 to 118 °C. The molecule `Cc1ccc(C)c2ncccc12` showed a melting point of 4.5 °C. `CC(=O)N1CC(C)=CC1=O` gave a melting point of 89 to 90 °C. On to `CCC(C)Br` (configuration not stated), for which the melting point was -112 °C. Regarding `CC(C)(C)OC(=O)N1CCN(C(=O)OCC2c3ccccc3-c3ccccc32)CC1C(=O)O` (configuration not stated), the melting point is 156 to 158 °C. Next, `CCCc1c(C(=O)O)cnn1-c1cc(Cl)cc(Cl)c1`: 169 to 171 °C; `CC1Cc2ccccc2CC1C` (configuration not stated): -5 °C. Next, `CC1(C)c2ccccc2NC1C(N)=O` (configuration not stated): 168 to 170 °C; `C=COCCCCCCCCCCCCCCCC`: 16 °C. The molecule `Cc1noc(-c2ccc(CBr)cc2)n1` came in with a melting point of 114 to 116 °C.

On to `CC1(C)CC(N)CC(C)(C)N1`, for which the melting point is 17 °C. `CN(C(=O)C(Cl)Cl)c1ccc(O)cc1`: the melting point came out at 175 °C. `CCOC(=O)C=C1SC(N2CCCCC2)C(=O)N1C` (configuration not stated) came in with a melting point of 140 °C.

In turn, `O=C(O)COCCN1C(=O)c2ccccc2C1=O` had a melting point of 128 °C. Next, `O=C1/C(=C/c2ccc([N+](=O)[O-])cc2)SC(=S)N1CNc1ccc([N+](=O)[O-])cc1`: 189 °C.

Regarding `CC(C)(C)OC(=O)N1c2ccccc2CC1CO` (configuration not stated), the melting point was 84 to 89 °C.

As for `CN(N=O)c1ccc(N=O)cc1`, the melting point was found to be 101 °C. Next, `N#Cc1ccc(C=Cc2ccc(C=Cc3ccc(C#N)cc3[N+](=O)[O-])cc2)c([N+](=O)[O-])c1`: 350 °C.

With `Cc1cc(Cn2nc(C)cc2C)c(O)c(Cn2nc(C)cc2C)c1`, the melting point came to 125 °C. Then `N#CC1=C(N)N2C(=C(C#N)C1c1ccccc1)Sc1ccccc12` (configuration not stated), with 205 °C. Then `COc1cc(CCl)c(OC)cc1CCl`, with 164 to 165 °C; and `CC(=O)Nc1ccsc1C(=O)O`, with 200 to 202 °C. As for `O=CCCCCC=O`, the melting point was -8 °C. As to `CCCCCCCc1ccc(O)cc1`, the melting point worked out at 26.5 °C. In the case of `O=C(O)C1(c2cccc(F)c2)CCCC1`, the melting point was in the range of 149 to 153 °C. Next, `Cc1ccccc1CC(NC(=O)OCC1c2ccccc2-c2ccccc21)C(=O)O` (racemic): 157 to 164 °C. `OCCCc1ccncc1` yielded a melting point of 37 °C.

The values are drawn from a melting point compilation (Tetko et al.).
